The test system of data set [1] is human retinoid X receptor (hRXR). As to the kind of experiment: human retinoid X receptor (hRXR) activity. The format is cell-based.
In data set [2] the test system is subjects with FAOD. The data set is described as follows: FAOD clinical trial with Compound 1. The class given is in vivo, human. Here is the method:
In some embodiments, outcome measures are assessed with tests that assess exercise tolerance. In some embodiments, exercise tolerance is assessed with exercise tests. Exercise tests include, but are not limited to, submaximal treadmill, walking tests (e.g. without limitation, 6 minute; 12 minute walks), run tests, treadmill and ergometry exercise testing. In some embodiments, exercise tests are used in combination with the Borg Scale of perceived exertion. In some embodiments, exercise tests are performed according to guidelines set forth by the American Thoracic Society (ATS).
In some embodiments, stable isotope methods are used to measure in vivo residual fatty acid oxidation capacity. Enrichment of ^13CO2 only occurs by one complete round of fatty acid oxidation. A representative protocol is as follows. A fasting blood sample is obtained after an overnight fast. Prior to breakfast, a resting indirect calorimetry is measured. Subjects are then given a meal (e.g a shake) containing 17-mg/kg ^13C-oleic acid. Breath samples are collected prior to (time 0) and again hourly at 1, 2, 3, 4, 5, 6, 7, and 8 hours following the ^13C-oleic administration. ^13C in breath samples are measured as a ratio of ^13C/^12C using the Delta Plus IRMS (Finnigan MAT, Bremen, Germany). Recovery is calculated as ^13C divided by the dose of ^13C administered. The amount of excess ^13C in breath is a measure of residual fatty acid oxidation capacity in subjects with disorders of long-chain fatty acid oxidation.
In some embodiments, improvements in fatty acid oxidation in subjects with a FAOD that are treated with a PPARδ agonist compound described herein (e.g. Compound 1, or a pharmaceutically acceptable salt thereof) are measured with a suitable ^13CO2 breath sample test. In some embodiments, a suitable ^13CO2 breath sample test comprises the steps of: 1) providing the subject a meal comprising ^13C-enriched fatty acid(s); 2) administering to the subject a PPARδ agonist compound, or a pharmaceutically acceptable salt thereof, after the consumption of the meal; and 3) collecting breath samples from the subject at regular intervals and measuring the relative amount of ^13CO2 to ^12CO2 in the breath samples. In some embodiments, the breath samples are collected about every hour. In some embodiments, the meal is enriched with a 13C labeled fatty acid, wherein the fatty acid is butyric acid, caproic acid, caprylic acid, capric acid, lauric acid, myristic acid, palmitic acid, stearic acid, arachidic acid, behenic acid, lignoceric acid, caproleic acid, lauroleic acid, myristoleic acid, palmitoleic acid, oleic acid, elaidic acid, vaccenic acid, gadoleic acid, erucic acid, brassidic acid, nervonic acid, linoleic acid, alpha-linolenic acid, gamma-linolenic acid, columbinic acid, stearidonic acid, mead acid, dihomo-γ-linolenic acid, arachidonic acid, eicosapentaenoic acid, docosapentaenoic acid, or docosahexaenoic acid.
A non-limiting example of a fatty acid oxidation disorder (FAOD) clinical trial in humans is described below. […]

Data set [3] concerns the target T1, FXR (Homo sapiens, UniProt Q96RI1).
T1 sequence (Q96RI1 1-486): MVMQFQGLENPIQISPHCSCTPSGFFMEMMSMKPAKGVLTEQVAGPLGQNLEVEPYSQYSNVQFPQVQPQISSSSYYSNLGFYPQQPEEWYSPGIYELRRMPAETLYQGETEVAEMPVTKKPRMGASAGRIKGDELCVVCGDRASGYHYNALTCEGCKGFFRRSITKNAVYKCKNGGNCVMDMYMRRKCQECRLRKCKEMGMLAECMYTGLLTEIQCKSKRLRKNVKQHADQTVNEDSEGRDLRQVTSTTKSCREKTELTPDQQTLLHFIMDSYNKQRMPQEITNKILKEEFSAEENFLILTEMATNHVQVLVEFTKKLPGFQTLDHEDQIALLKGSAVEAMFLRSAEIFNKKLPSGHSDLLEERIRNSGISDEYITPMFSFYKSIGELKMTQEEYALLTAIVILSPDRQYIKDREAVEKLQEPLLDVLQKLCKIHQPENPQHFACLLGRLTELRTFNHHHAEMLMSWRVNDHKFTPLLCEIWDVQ
The data set is described as follows: activity on nuclear receptor FXR. The format is cell-based.

Data set [4] relates to PPARδ regulated genes (CPT1b, PGC1α). As to the kind of experiment: expression of PPARδ regulated genes in vivo.
The target of data set [5] is T2, LXRβ (Homo sapiens, UniProt P55055).
T2 sequence (P55055 1-460): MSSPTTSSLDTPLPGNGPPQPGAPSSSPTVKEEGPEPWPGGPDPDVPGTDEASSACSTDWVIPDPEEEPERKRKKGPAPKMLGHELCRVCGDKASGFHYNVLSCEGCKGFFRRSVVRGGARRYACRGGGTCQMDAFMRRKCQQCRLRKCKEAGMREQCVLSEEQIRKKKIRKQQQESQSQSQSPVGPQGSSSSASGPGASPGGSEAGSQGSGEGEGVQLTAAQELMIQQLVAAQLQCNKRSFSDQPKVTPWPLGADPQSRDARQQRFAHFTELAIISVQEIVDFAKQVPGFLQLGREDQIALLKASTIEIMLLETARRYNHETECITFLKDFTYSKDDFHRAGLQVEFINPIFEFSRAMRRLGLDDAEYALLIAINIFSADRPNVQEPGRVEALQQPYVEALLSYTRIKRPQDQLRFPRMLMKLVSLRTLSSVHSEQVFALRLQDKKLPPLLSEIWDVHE
The data set is described as follows: activity on nuclear receptor LXRβ. The class given is cell-based.

As for `Cc1cc(OC/C=C(/c2ccc(F)cc2)c2ccc(C#CCN3CCOCC3)cc2)ccc1OCC(=O)O` [Compound 1, (E)-[4-[3-(4-Fluorophenyl)-3-[4-[3-(morpholin-4-yl)propynyl]phenyl]allyloxy]-2-methyl-phenoxy]acetic acid], the hRXR activity result in data set [1] was “did not show any”. In data set [2] (50 mg once daily for 12 weeks), the exercise capacity result was “Improvements”, the “exhaled 13CO2” value is “trend towards increases” and the “heart rate during the last ten minutes of exercise” value was “decreases”. The “distance walked during a 12-minute walk test” value in data set [2] (50 mg once daily for 12 weeks, FIG. 1) is reported as “increase”. The tolerability result in data set [2] (subjects that participated in the study) is “well tolerated”. Besides, in data set [3], the “activity on FXR” value was “did not show any”. Besides, in data set [4], the “expression pattern of CPT1b (fatty acid metabolism)” value is “altered the expression patterns” and the “expression pattern of PGC1α (mitochondrial biogenesis)” value was “altered the expression patterns”. The “activity on LXRβ” value in data set [5] was “did not show any”.

The values above are taken from patent US20220023306A1, “USE OF A PPAR-DELTA AGONIST IN THE TREATMENT OF FATTY ACID OXIDATION DISORDERS (FAOD)” (Reneo Pharmaceuticals, Inc., priority 2019, published 2022).
